Data reported in PubChem BioAssay AID278 (DTP/NCI, 2004).
Several values for one entry are separate records, joined by “and”; a condition that tells them apart may be missing. Identical values can stand only once. Records with an inconclusive call do not appear.

Tested on: nude mice, A549 intrarenal xenograft, tumor weight change
Assay: NCI In Vivo Anticancer Drug Screen. Data for tumor model A549 Human Adenocarcinoma of Lung with characteristics of Type II Alveolar Epithelial cells (intrarenal inoculation) in NU/NU BALB/C (nude) mice
Settings: endpoint: mean tumor weight change, higher = larger tumour
Method: The antitumor activity of compounds was measured in mice bearing transplantable tumors. Survival or tumor size were measured and the results are expressed as the measurement made in the treated group (T) divided by the measurement made in the vehicle treated control group (C). The tumor model used in this assay is A549 Human Adenocarcinoma of Lung with characteristics of Type II Alveolar Epithelial cells (intrarenal inoculation) in NU/NU BALB/C (nude) mice

[1] = dose: 75.0 mg/kg/injection, schedule: Q04DX003 (ip), vehicle: Klucel (hydroxypropylcellulose) (HPC)
[2] = dose: 150.0 mg/kg/injection, schedule: Q04DX003 (ip), vehicle: Klucel (hydroxypropylcellulose) (HPC)
[3] = dose: 100.0 mg/kg/injection, schedule: Q04DX003 (ip), vehicle: saline with Tween-80
[4] = dose: 200.0 mg/kg/injection, schedule: Q04DX003 (ip), vehicle: saline with Tween-80
[5] = dose: 400.0 mg/kg/injection, schedule: Q04DX003 (ip), vehicle: saline with Tween-80

For `ClCCCSSCCCCl`, the T/C (dose: 62.5 mg/kg/injection, schedule: Q04DX003 (ip), vehicle: saline with Tween-80) was 56 % of control, the T/C (dose: 125.0 mg/kg/injection, schedule: Q04DX003 (ip), vehicle: saline with Tween-80) was 76 % of control and the T/C (dose: 250.0 mg/kg/injection, schedule: Q04DX003 (ip), vehicle: saline with Tween-80) was 81 % of control. The T/C (dose: 500.0 mg/kg/injection, schedule: Q04DX003 (ip), vehicle: saline with Tween-80) was 82 % of control.

`Cn1c(=S)sc2nc3ccccc3n2c1=S` was tested, and the T/C (dose: 30.0 mg/kg/injection, schedule: Q04DX003 (ip), vehicle: saline with Tween-80) was 83 % of control, the T/C (dose: 60.0 mg/kg/injection, schedule: Q04DX003 (ip), vehicle: saline with Tween-80) was 50 % of control and the T/C (dose: 120.0 mg/kg/injection, schedule: Q04DX003 (ip), vehicle: saline with Tween-80) was 73 % of control.

In the case of `COC(=O)C1(F)C(=O)NC(=O)NC1OC` (stereo not drawn), the T/C (dose: 400.0 mg/kg/injection, schedule: Q04DX003 (ip), vehicle: Klucel (hydroxypropylcellulose) (HPC)) is reported as 115 % of control, the T/C (dose: 800.0 mg/kg/injection, schedule: Q04DX003 (ip), vehicle: Klucel (hydroxypropylcellulose) (HPC)) is reported as 116 % of control and the T/C (dose: 1600.0 mg/kg/injection, schedule: Q04DX003 (ip), vehicle: Klucel (hydroxypropylcellulose) (HPC)) is reported as 94 % of control.

With `CN=C(N)c1ccc(N=C(N)c2ccc(C(N)=Nc3ccc(C(N)=NC)cc3)cc2)cc1` the T/C (dose: 13.0 mg/kg/injection, schedule: Q06HX010 (ip), vehicle: water) was 70 % of control and the T/C (dose: 20.0 mg/kg/injection, schedule: Q06HX010 (ip), vehicle: water) was 98 % of control.

For `O=C1CN(CCN2CC(=O)N(CN3CCOCC3)C(=O)C2)CC(=O)N1CN1CCOCC1`, the T/C (dose: 37.5 mg/kg/injection, schedule: Q04DX003 (ip), vehicle: saline with Tween-80) was 51 % of control and the T/C (dose: 75.0 mg/kg/injection, schedule: Q04DX003 (ip), vehicle: saline with Tween-80) was 60 % of control.

For `COc1cc2c(cc1OC)[C@@H]1C(=O)c3ccc4c(c3O[C@@H]1CO2)C[C@H](C(C)C)O4`, the T/C (dose: 21.25 mg/kg/injection, schedule: Q04DX003 (ip), vehicle: Klucel (hydroxypropylcellulose) (HPC)) was 90 % of control, the T/C (dose: 42.5 mg/kg/injection, schedule: Q04DX003 (ip), vehicle: Klucel (hydroxypropylcellulose) (HPC)) was 87 % of control and the T/C (dose: 85.0 mg/kg/injection, schedule: Q04DX003 (ip), vehicle: Klucel (hydroxypropylcellulose) (HPC)) was 37 % of control.

`COc1cc(C(C)c2cc3c(cc2OCCO)OCO3)cc(OC)c1OC` (stereo not drawn) was tested, and the T/C (dose: 125.0 mg/kg/injection, schedule: Q04DX003 (ip), vehicle: suspension in saline) was 117 % of control and the T/C (dose: 250.0 mg/kg/injection, schedule: Q04DX003 (ip), vehicle: suspension in saline) was 72 % of control.

`CCCCCNc1ncnc2c(C)[nH]nc12` was tested, and the T/C (dose: 37.5 mg/kg/injection, schedule: Q04DX003 (ip), vehicle: Klucel (hydroxypropylcellulose) (HPC)) was 82 % of control, the T/C [1] was 105 % of control and the T/C [2] was 100 % of control.

For `Cc1ccc(C(=O)NC2C(=O)NC(C(C)C)C(=O)N3CCCC3C(=O)N(C)CC(=O)N(C)C(C(C)C)C(=O)OC2C)c2c1Oc1c(c(C(=O)NC3C(=O)NC(C(C)C)C(=O)N4CCCC4C(=O)N(C)CC(=O)N(C)C(C(C)C)C(=O)OC3C)c3nc(-c4ccccc4)c(=O)oc3c1C)N2` (stereo not drawn), the T/C (dose: 0.36 mg/kg/injection, schedule: Q04DX003 (ip), vehicle: water) was 101 % of control, the T/C (dose: 0.5 mg/kg/injection, schedule: Q04DX003 (ip), vehicle: water) was 61 % of control and the T/C (dose: 0.6 mg/kg/injection, schedule: Q04DX003 (ip), vehicle: water) was 94 % of control. For the same compound, the T/C (dose: 1.67 mg/kg/injection, schedule: Q04DX003 (ip), vehicle: water) was 62 % of control.

With `C=CCOc1cc2c(cc1C(C)c1ccc(OC)cc1)OCO2` (stereo not drawn) the T/C [1] was 58 % of control and the T/C [2] was 94 % of control and 77 % of control.

With `CCN(CC)c1ccc2[nH]c3c(C(N)=O)cc(=O)c(=O)c=3oc2c1` the T/C (dose: 150.0 mg/kg/injection, schedule: Q04DX003 (ip), vehicle: saline with Tween-80) was 84 % of control and the T/C (dose: 300.0 mg/kg/injection, schedule: Q04DX003 (ip), vehicle: saline with Tween-80) was 96 % of control.

With `Cc1c(O)/c(=C\O)c2nc3c(=O)ccc(C(=O)NCCN(C)C)c3[nH]c2c1=O` the T/C (dose: 50.0 mg/kg/injection, schedule: Q04DX003 (ip), vehicle: water) was 120 % of control, the T/C (dose: 100.0 mg/kg/injection, schedule: Q04DX003 (ip), vehicle: water) was 48 % of control and the T/C (dose: 120.0 mg/kg/injection, schedule: Q04DX003 (ip), vehicle: water) was 52 % of control and 75 % of control.

In the case of `N[C@@H](Cc1c[nH]c2ccccc12)C(=O)Nc1nncs1`, the T/C (dose: 150.0 mg/kg/injection, schedule: Q04DX003 (ip), vehicle: suspension in saline) is reported as 74 % of control, the T/C (dose: 300.0 mg/kg/injection, schedule: Q04DX003 (ip), vehicle: suspension in saline) is reported as 67 % of control and the T/C (dose: 600.0 mg/kg/injection, schedule: Q04DX003 (ip), vehicle: suspension in saline) is reported as 70 % of control.

For `COc1cc2c[n+](C)c3c(c2cc1OC)Cc1cc2c(cc1-3)OCO2`, the T/C (dose: 18.75 mg/kg/injection, schedule: Q04DX003 (ip), vehicle: saline with Tween-80) was 39 % of control.

For `NC(=S)N/N=C/c1ccc(O)cn1`, the T/C [3] was 46 % of control, the T/C [4] was 57 % of control and the T/C [5] was 53 % of control.

In the case of `O=S(=O)(c1cccc(N=C=S)c1)c1cccc(N=C=S)c1`, the T/C (dose: 30.0 mg/kg/injection, schedule: Q04DX003 (ip), vehicle: Klucel (hydroxypropylcellulose) (HPC)) is reported as 67 % of control.

With `CC(=O)c1cccc(NC2C(N)C(NC(=O)N(C)C)(C(C)O)C(C)(O)C2(O)COC(=O)c2c(C)cccc2O)c1` (stereo not drawn) the T/C (dose: 6.25 mg/kg/injection, schedule: Q04DX003 (ip), vehicle: suspension in saline) was 183 % of control, the T/C (dose: 12.5 mg/kg/injection, schedule: Q04DX003 (ip), vehicle: suspension in saline) was 121 % of control and the T/C (dose: 25.0 mg/kg/injection, schedule: Q04DX003 (ip), vehicle: suspension in saline) was 120 % of control. For the same compound, the T/C (dose: 50.0 mg/kg/injection, schedule: Q04DX003 (ip), vehicle: suspension in saline) was 68 % of control.

For `O=C(O)C1CC(O)CN1` (stereo not drawn), the T/C (dose: 150.0 mg/kg/injection, schedule: Q04DX003 (ip), vehicle: saline) was 70 % of control, the T/C (dose: 300.0 mg/kg/injection, schedule: Q04DX003 (ip), vehicle: saline) was 65 % of control and the T/C (dose: 600.0 mg/kg/injection, schedule: Q04DX003 (ip), vehicle: saline) was 110 % of control. The T/C (dose: 1200.0 mg/kg/injection, schedule: Q04DX003 (ip), vehicle: saline) was 71 % of control.

`[NH-]C(CCC(N)=O)C(=O)O.[NH-]C(CCC(N)=O)C(=O)O.[Zn+2]` (stereo not drawn) was tested, and the T/C (dose: 25.0 mg/kg/injection, schedule: Q04DX003 (ip), vehicle: saline with Tween-80) was 83 % of control, the T/C (dose: 50.0 mg/kg/injection, schedule: Q04DX003 (ip), vehicle: saline with Tween-80) was 29 % of control and the T/C [3] was 54 % of control.

`c1nnc(NCNc2nncs2)s1` was tested, and the T/C (dose: 100.0 mg/kg/injection, schedule: Q04DX003 (ip), vehicle: suspension in saline) was 61 % of control, the T/C (dose: 144.0 mg/kg/injection, schedule: Q04DX003 (ip), vehicle: Klucel (hydroxypropylcellulose) (HPC)) was 36 % of control and the T/C (dose: 200.0 mg/kg/injection, schedule: Q04DX003 (ip), vehicle: suspension in saline) was 23 % of control. For the same compound, the T/C (dose: 240.0 mg/kg/injection, schedule: Q04DX003 (ip), vehicle: Klucel (hydroxypropylcellulose) (HPC)) was 23 % of control and the T/C (dose: 400.0 mg/kg/injection, schedule: Q04DX003 (ip), vehicle: suspension in saline) was 20 % of control.

For `CC(C)(C[NH-])C[NH-].[Cl][Pt+2][Cl]`, the T/C (dose: 1.5 mg/kg/injection, schedule: Q04DX003 (ip), vehicle: water) was 40 % of control, the T/C (dose: 3.0 mg/kg/injection, schedule: Q04DX003 (ip), vehicle: water) was 70 % of control and the T/C (dose: 6.0 mg/kg/injection, schedule: Q04DX003 (ip), vehicle: water) was 62 % of control. The T/C (dose: 12.0 mg/kg/injection, schedule: Q04DX003 (ip), vehicle: water) was 52 % of control.

`NC(N)=NS(=O)(=O)c1ccc(NCc2c3ccccc3nc3ccccc23)cc1` was tested, and the T/C [2] was 4 % of control, the T/C (dose: 300.0 mg/kg/injection, schedule: Q04DX003 (ip), vehicle: Klucel (hydroxypropylcellulose) (HPC)) was 10 % of control and the T/C (dose: 600.0 mg/kg/injection, schedule: Q04DX003 (ip), vehicle: Klucel (hydroxypropylcellulose) (HPC)) was -10 % of control. For the same compound, the T/C (dose: 1200.0 mg/kg/injection, schedule: Q04DX003 (ip), vehicle: Klucel (hydroxypropylcellulose) (HPC)) was -7 % of control.

In the case of `Nc1ccc2ccc(N)cc2c1`, the T/C [3] is reported as 87 % of control, the T/C [4] is reported as 111 % of control and the T/C [5] is reported as 55 % of control.
